EC50 and IC50 data for 29 compounds are collected here from US12410160B2 (Gilead Sciences, Inc., priority 2021, dated 2025).

A word on the EC50: it is the concentration at which the effect is half-maximal. A lower EC50 goes with a more potent agent. A word on the IC50: it is the concentration needed to halve the response being measured. Read a high IC50 as a need for much substance.

Bounds are passed on as bounds.

The target in test [1] is KHK-C expressed in NRK-52E cells (Homo sapiens (Human), UniProt P50053). Description: KHK-C Cell-based Assay (EC50), NRK CTG, fructose-mediated ATP-depletion.
KHK-C expressed in NRK-52E cells, sequence (P50053 whole entry): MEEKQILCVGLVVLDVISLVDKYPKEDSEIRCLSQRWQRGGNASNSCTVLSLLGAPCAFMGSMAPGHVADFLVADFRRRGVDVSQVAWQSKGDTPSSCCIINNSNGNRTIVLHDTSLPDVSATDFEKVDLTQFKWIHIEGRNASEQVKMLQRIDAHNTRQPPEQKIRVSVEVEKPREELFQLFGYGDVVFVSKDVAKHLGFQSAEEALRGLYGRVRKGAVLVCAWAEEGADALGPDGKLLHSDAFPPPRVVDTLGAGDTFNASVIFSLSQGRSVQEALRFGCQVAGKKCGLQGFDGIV
Experimental: Compounds were tested in a high-throughput 384-well assay format for their ability to attenuate fructose-mediated ATP-depletion in Normal Rat Kidney epithelial cells (NRK-52E) using the Cell-Titer Glo (CTG) assay, which measures cellular ATP levels based on luminescence signal by using the luciferase-luciferin system. Compounds were serially diluted (1:3) in DMSO.
The plates were incubated at 37° C., 5% CO2 for one day. Cells were then transduced on day 2 with 200 MOI of Adenovirus (VQAd KHKC C-(K)-DYK ViraQuest Inc.) using the same medium and method as day-1 to induce KHK-C expression in the cells. Cells were incubated at 37° C., 5% CO2 for one day. On day-3, the medium was changed to DMEM medium (Corning, Catalog #10-014-CM) with 0.5% FBS and Penicillin-Streptomycin after washing the cells twice with sterile PBS on the BioTEK EL406 washer and dispenser. Test compounds were then diluted 200-fold into the assay plates using the BioMek FX and were incubated for 1 hour at 37° C., 5% CO2. 25 mM (final concentration) of fructose was then dispensed into the plates using the BioTEK EL406 dispenser and the plates were incubated at 37° C., 5% CO2 for 48 hours before addition of CTG reagent and measurement of luminescence signal.
The target of another test is human KHK-C (Homo sapiens (Human), UniProt P50053). Description: KHK Biochemical Assay (IC50), ADP-Glo, KHK-C. The note with it: average of at least two separate assays. The method in brief:
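Luminescent ADP-Glo read-out of ADP made by His-tagged KHK (BL21 (DE3) expression, Ni-NTA). Enzyme and compound sat together 30 min before ATP/fructose addition, then reacted 4 h at RT in Hepes pH 7.4 buffer with KCl, MgCl2, Triton-X. Quench 1 h, detection 1 h.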
In general terms: ADP-Glo first removes unused ATP, then detects ADP through luciferase.

human KHK-C, sequence (P50053 whole entry): as above

In turn, `C[C@H]1[C@H](O)CN1c1nc(-c2ccc(C(N)=O)c(OC(F)(F)F)c2)c2c(n1)C(F)(F)CC2` [Example 183, 4-(7,7-difluoro-2-((2S,3R)-3-hydroxy-2-methylazetidin-1-yl)-6,7-dihydro-5H-cyclopenta[d]pyrimidin-4-yl)-2-(trifluoromethoxy)benzamide] showed a concentration for a half-maximal effect (EC50) in test [1] of 0.0891 µM. The midpoint of inhibition against human KHK-C (ADP-Glo), the IC50, lay at 0.0213 µM.

`C[C@H]1[C@H](O)CN1c1nc2c(c(-c3ccc(CNS(C)(=O)=O)cc3)n1)CCC2` [Example 195, N-[[4-[2-[(2S,3R)-3-hydroxy-2-methyl-azetidin-1-yl]-6,7-dihydro-5H-cyclopenta[d]pyrimidin-4-yl]phenyl]methyl]methanesulfonamide] yielded a concentration giving a half-maximal response (EC50) in test [1] of 0.431 µM. Further, the midpoint of inhibition against human KHK-C (ADP-Glo), the IC50, lay at 0.0586 µM.

`C[C@H]1CCN1c1nc2c(c(-c3ccncn3)n1)CCC2` [Example 393, 2-[(2S)-2-methylazetidin-1-yl]-4-pyrimidin-4-yl-6,7-dihydro-5H-cyclopenta[d]pyrimidine]: in test [1], a half-maximal response (EC50) required 0.403 µM. Further, half-maximal inhibition at human KHK-C (IC50) required 0.219 µM.

With `C[C@H]1CCN1c1nc2c(c(-c3nccn3C)n1)CCC2` [Example 394, 2-[(2S)-2-methylazetidin-1-yl]-4-(1-methylimidazol-2-yl)-6,7-dihydro-5H-cyclopenta[d]pyrimidine], the EC50 in test [1] was found to be 0.785 µM. The compound also gave an IC50 at human KHK-C of 0.172 µM.

In test [1], `C[C@H]1CCN1c1nc2c(c(-c3nc4ccc(C(=O)O)cc4n3C)n1)CCC2` [Example 395, 3-methyl-2-[2-[(2S)-2-methylazetidin-1-yl]-6,7-dihydro-5H-cyclopenta[d]pyrimidin-4-yl]benzimidazole-5-carboxylic acid] registered an EC50 of more than 5 µM. The compound also came in with a half-inhibitory concentration (IC50) against human KHK-C of 0.329 µM.

In the case of `C[C@H]1CCN1c1nc2c(c(-c3cccc(C4(O)CS(=O)(=O)C4)c3)n1)CCC2` [Example 397, (S)-3-hydroxy-3-(3-(2-(2-methylazetidin-1-yl)-6,7-dihydro-5H-cyclopenta[d]pyrimidin-4-yl)phenyl)thietane 1,1-dioxide], a half-maximal response in test [1] (EC50) required 0.166 µM. Also, the IC50 on human KHK-C was found to be 0.0328 µM.

In test [1], `CC12CCC(CC1)N2c1nc2c(c(-c3ccc(C(N)=O)cc3)n1)CCC2` [Example 398, 4-(2-(-1-methyl-7-azabicyclo[2.2.1]heptan-7-yl)-6,7-dihydro-5H-cyclopenta[d]pyrimidin-4-yl)benzamide] came in with an EC50 of more than 5 µM. The compound also came in with a half-inhibitory concentration (IC50) against human KHK-C of more than 5 µM.

Turning to `C[C@H]1CCN1c1nc2c(c(-c3cccc(S(C)(=O)=O)c3)n1)CCC2` [Example 399, (S)-2-(2-methylazetidin-1-yl)-4-(3-(methylsulfonyl)phenyl)-6,7-dihydro-5H-cyclopenta[d]pyrimidine], the EC50 in test [1] stood at 0.139 µM. Also, at human KHK-C, the IC50 turned out to be 0.0743 µM.

In test [1], `NC(=O)c1ccc(-c2nc(N3CCCC34CC4)nc3c2CCC3)cc1` [Example 402, 4-(2-(4-azaspiro[2.4]heptan-4-yl)-6,7-dihydro-5H-cyclopenta[d]pyrimidin-4-yl)benzamide] registered a concentration for a half-maximal effect (EC50) of 1.59 µM. On human KHK-C, this compound showed an IC50 of 3.76 µM.

The compound `C[C@H]1CCCN1c1nc2c(c(-c3ccc(C(N)=O)cc3)n1)CCC2` [Example 403, (S)-4-(2-(2-methylpyrrolidin-1-yl)-6,7-dihydro-5H-cyclopenta[d]pyrimidin-4-yl)benzamide] had an EC50 in test [1] of 0.242 µM. Also, the midpoint of inhibition against human KHK-C, the IC50, lay at 0.217 µM.

As to `C[C@@H]1CCCN1c1nc2c(c(-c3ccc(C(N)=O)cc3)n1)CCC2` [Example 404, (R)-4-(2-(2-methylpyrrolidin-1-yl)-6,7-dihydro-5H-cyclopenta[d]pyrimidin-4-yl)benzamide], the EC50 in test [1] is more than 5 µM. For the same compound, the half-maximal inhibitory concentration (IC50) against human KHK-C is more than 5 µM.

In test [1], `NC(=O)c1ccc(-c2nc(N3CCC3)nc3c2CCC3)cc1` [Example 405, 4-(2-(azetidin-1-yl)-6,7-dihydro-5H-cyclopenta[d]pyrimidin-4-yl)benzamide] displayed a concentration giving a half-maximal response (EC50) of 4.77 µM. Moreover, on human KHK-C, the IC50 was 2.47 µM.

`CSCC1CCN1c1nc2c(c(-c3ccc(C(N)=O)cc3)n1)CCC2` (stereo not shown) [Example 415, 4-(2-(2-((methylthio)methyl)azetidin-1-yl)-6,7-dihydro-5H-cyclopenta[d]pyrimidin-4-yl)benzamide] yielded a half-maximal effective concentration (EC50) in test [1] of more than 5 µM. Further, on human KHK-C, the IC50 is more than 5 µM.

As to `NC(=O)c1ccc(-c2nc(N3CCCC3=O)nc3c2CCC3)cc1` [Example 418, 4-(2-(2-oxopyrrolidin-1-yl)-6,7-dihydro-5H-cyclopenta[d]pyrimidin-4-yl)benzamide], in test [1], the EC50 was more than 5 µM. For the same compound, on human KHK-C, the IC50 was more than 5 µM.

The compound `C[C@H]1CCN1c1nc2c(c(-c3cccc(C4=CS(=O)(=O)C4)c3)n1)CCC2` [Example 420, (S)-3-(3-(2-(2-methylazetidin-1-yl)-6,7-dihydro-5H-cyclopenta[d]pyrimidin-4-yl)phenyl)-2H-thiete 1,1-dioxide] registered an EC50 in test [1] of 0.382 µM. The compound further showed a concentration for half-maximal inhibition (IC50) against human KHK-C of 0.0618 µM.

`C[C@H]1CCN1c1nc2c(c(-c3cccc(C4CS(=O)(=O)C4)c3)n1)CCC2` [Example 421, (S)-3-(3-(2-(2-methylazetidin-1-yl)-6,7-dihydro-5H-cyclopenta[d]pyrimidin-4-yl)phenyl)thietane 1,1-dioxide] showed an EC50 in test [1] of 0.297 µM. Moreover, the half-inhibitory concentration (IC50) on human KHK-C was found to be 0.067 µM.

The compound `C[C@H]1CCN1c1nc2c(c(-c3ccc4c(c3)CS(=O)(=O)C4)n1)CCC2` [Example 422, (S)-5-(2-(2-methylazetidin-1-yl)-6,7-dihydro-5H-cyclopenta[d]pyrimidin-4-yl)-1,3-dihydrobenzo[c]thiophene 2,2-dioxide] yielded an EC50 in test [1] of 0.24 µM. This compound also had an IC50 against human KHK-C of 0.095 µM.

Take `C[C@H]1CCN1c1nc2c(c(-c3cccc([C@@H]4[C@@H](C(=O)O)C4(C)C)c3)n1)CCC2` [Example 435, (1R,3R)-2,2-dimethyl-3-(3-(2-((S)-2-methylazetidin-1-yl)-6,7-dihydro-5H-cyclopenta[d]pyrimidin-4-yl)phenyl)cyclopropane-1-carboxylic acid]: the half-maximal effective concentration (EC50) in test [1] is 0.0784 µM. At human KHK-C, this compound came in with an IC50 of 0.0054 µM.

In test [1], `CC(C)(O)[C@H]1CCN1c1nc2c(c(-c3ccc(C(N)=O)cc3)n1)CCC2` [Example 436, 4-[2-[(2R)-2-(1-hydroxy-1-methyl-ethyl)azetidin-1-yl]-6,7-dihydro-5H-cyclopenta[d]pyrimidin-4-yl]benzamide] displayed an EC50 of 2.94 µM. This compound yielded a half-maximal inhibitory concentration (IC50) at human KHK-C of 2.73 µM.

The compound `CC(C)C[C@H]1C(F)CN1c1nc2c(c(-c3ccc(C(N)=O)cc3)n1)CCC2` (stereo partly drawn) [Example 437, 4-[2-[(2S)-3-fluoro-2-isobutyl-azetidin-1-yl]-6,7-dihydro-5H-cyclopenta[d]pyrimidin-4-yl]benzamide] came in with a 50% effective concentration (EC50) in test [1] of more than 5 µM. Also, the IC50 on human KHK-C is more than 5 µM.

As to `C[C@@H](OCc1ccccc1)[C@H]1C(O)CN1c1nc2c(c(-c3ccc(C(N)=O)cc3)n1)CCC2` (stereo partly drawn) [Example 438, 4-[2-[(2R)-2-[(1R)-1-benzyloxyethyl]-3-hydroxy-azetidin-1-yl]-6,7-dihydro-5H-cyclopenta[d]pyrimidin-4-yl]benzamide], in test [1], the 50% effective concentration (EC50) was more than 5 µM. This compound also returned an IC50 on human KHK-C of more than 5 µM.

`NC(=O)c1ccc(-c2nc(N3CC[C@@H]3C(=O)O)nc3c2CCC3)cc1` [Example 442, (2R)-1-[4-(4-carbamoylphenyl)-6,7-dihydro-5H-cyclopenta[d]pyrimidin-2-yl]azetidine-2-carboxylic acid] showed an EC50 in test [1] of 2.73 µM. On human KHK-C, this compound displayed an IC50 of 1.58 µM.

In test [1], `C[C@H]1CCN1c1nc2c(c(-c3cc(Cl)cc([C@H]4C[C@@H]4C(=O)O)c3)n1)CCC2` [Example 443, (1S,2S)-2-[3-chloro-5-[2-[(2S)-2-methylazetidin-1-yl]-6,7-dihydro-5H-cyclopenta[d]pyrimidin-4-yl]phenyl]cyclopropanecarboxylic acid] displayed an EC50 of 0.0538 µM. Besides, the IC50 against human KHK-C came to 0.0042 µM.

Turning to `C[C@H]1[C@H](O)CN1c1nc2c(c(-c3ccc(C(N)=O)cc3)n1)CC(F)(F)CC2` [Example 444, 4-(6,6-difluoro-2-((2S,3R)-3-hydroxy-2-methylazetidin-1-yl)-5,6,7,8-tetrahydroquinazolin-4-yl)benzamide], in test [1], the half-maximal effective concentration (EC50) is more than 5 µM. Further, the IC50 against human KHK-C is more than 5 µM.

The compound `CS(=O)(=O)NC[C@H]1CCN1c1nc2c(c(-c3ccc(C(N)=O)cc3)n1)CCC2` [Example 457, 4-[2-[(2R)-2-(methanesulfonamidomethyl)azetidin-1-yl]-6,7-dihydro-5H-cyclopenta[d]pyrimidin-4-yl]benzamide] showed an EC50 in test [1] of more than 5 µM. For the same compound, the IC50 against human KHK-C is 0.954 µM.

Regarding `C[C@H]1[C@H](O)CN1c1nc(-c2ccc3c(c2)OCCNS3(=O)=O)c2c(n1)C(F)(F)CC2` [Example 500], the EC50 in test [1] was determined as 0.238 µM. This compound came in with an IC50 on human KHK-C of 0.0486 µM.

`CC1CCC1c1nc2c(c(-c3ccc(C(N)=O)cc3)n1)CCC2` (stereo not shown) [Example 501, 4-(2-(2-methylcyclobutyl)-6,7-dihydro-5H-cyclopenta[d]pyrimidin-4-yl)benzamide] yielded an EC50 in test [1] of 0.597 µM. Further, the half-maximal inhibitory concentration (IC50) against human KHK-C was found to be 0.212 µM.

Compound `CC1(c2nc3c(c(-c4ccc(C(N)=O)cc4)n2)CCC3)CCC1` [Example 502, 4-(2-(1-methylcyclobutyl)-6,7-dihydro-5H-cyclopenta[d]pyrimidin-4-yl)benzamide] came in with a half-maximal effective concentration (EC50) in test [1] of 2 µM. Also, the IC50 against human KHK-C turned out to be 0.768 µM.

For the compound `C[C@H]1[C@H](O)CN1c1nc(-c2ccc(C3(N)COC3)c(F)c2)c2c(n1)C(F)(F)CC2` [Example 503, (2S,3R)-1-(4-(4-(3-aminooxetan-3-yl)-3-fluorophenyl)-7,7-difluoro-6,7-dihydro-5H-cyclopenta[d]pyrimidin-2-yl)-2-methylazetidin-3-ol], the EC50 in test [1] amounted to 0.0267 µM. Also, at human KHK-C, it took 0.005 µM to reach half-maximal inhibition (IC50).
